The results in this text go back to patent US20180353457A1, “ABIETANE DITERPENOID 7-ACETOXYROYLEANONES FOR USE IN CANCER TREATMENT” (University of South Carolina, priority 2017, published 2018).

For data set [1], the system named is leukemia cell lines. Put plainly: NCI-60 one dose screen, leukemia cell lines. The data set is classed as cell-based. As to conditions: 10 μM, each leukemia cell line. The protocol:
One dose and five dose cytotoxicity screening was performed by the NCI-60 screening program of the National Institutes of Health (NIH), which is known in the art and available from the NIH. The NCI-60 panel is a collection of cancer cell lines, from various diverse tumors, which was developed in the 1980s by the National Cancer Institute to aid screening efforts for cytotoxic or cytostatic compounds.
In these screens, 60 cell lines, were utilized to determine the cytotoxic effect of small molecules, natural products, and other drug candidates. […]
The five dose screen was performed by creating four 10-fold dilutions of the highest concentration of the diluted 7-acetoxyroyleanone made in the same manner as the one dose screen. […] The bound stain was then dissolved in 10 mM trizma base and the absorbance was read using an automated plate reader at 515 nm. […]

The subject of data set [2] is DU-145 (prostate cancer) cells. The experiment in a line: NCI-60 five dose screen, DU-145. The settings on record: read-out: LC50; DU-145, Prostate.

`CC(=O)O[C@@H]1C[C@H]2C(C)(C)CCC[C@]2(C)C2=C1C(=O)C(C(C)C)=C(O)C2=O` [7-acetoxyroyleanone]: in data set [1], the “cell death versus growth inhibition” value is “did not appear to induce cell death, but rather growth inhibition”. For the same compound, in data set [2], the CC50 was found to be 5.67 µM.
